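Values below derive from 48-hour exposures of cells grown in 96-well plates, with endpoints linearly interpolated between the two concentrations bracketing the appropriate inhibition level. Here, GI50 denotes the concentration required for 50% inhibition of growth.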 The source made the active and inactive calls. Rule as the data show it: active = GI50 up to about 1.1 µM and inactive = higher. Non-standard residues stand in square brackets, D forms with d. Residues, ends and D or L forms follow the SMILES beside them. *: point of attachment. Phe(4-NO2) = N[CH](Cc1ccc([N+](=O)[O-])cc1)C(=O)O; Boc = CC(C)(C)OC(=O)*
How the values were obtained:
Test in all cases: DTP human tumour cell line panel, 48 h
LXFL 529 = tested on: LXFL 529
M19-MEL = tested on: M19-MEL
DMS-114 = tested on: DMS-114
RXF 631 = tested on: RXF 631
T47D = tested on: T47D
PC-3 = tested on: PC-3
Hs-578T = tested on: Hs-578T
BT-549 = tested on: BT-549
786-0 = tested on: 786-0

Row | Structure (SMILES) | GI50 (LXFL 529) | GI50 (M19-MEL) | GI50 (DMS-114) | GI50 (RXF 631) | GI50 (T47D) | GI50 (PC-3) | GI50 (Hs-578T) | GI50 (BT-549) | GI50 (786-0)
1 | CCOC(=O)NC(=O)c1cn(CCNCCO)c(=O)[nH]c1=O | > 100 µM (inactive) | > 100 µM (inactive) | > 100 µM (inactive) | – | – | – | – | – | –
2 | NC(S)=Nc1cc(Cl)ccc1Cl | > 100 µM (inactive) | > 100 µM (inactive) | > 100 µM (inactive) | > 100 µM (inactive) | – | – | – | – | –
3 | c1nc2nc[nH]c(SSc3[nH]cnc4ncnc3-4)c-2n1 | – | – | – | – | 2.64 µM (inactive) | 1.23 µM (inactive) | 5.89 µM (inactive) | 14.1 µM (inactive) | –
4 | Cc1ccc(N(O)C(C)(C)C)cc1 | – | > 100 µM (inactive) | > 100 µM (inactive) | – | – | – | – | – | –
5 | Cc1ccc(C(=O)C2CC3(CCC2(O)c2ccc(C)cc2)CC(=O)Nc2ccccc2C3=O)cc1 (stereo unspecified) | – | – | – | – | 8.57 µM (inactive) | 7.05 µM (inactive) | 41.1 µM (inactive) | > 100 µM (inactive) | –
6 | COc1nc(-c2cn(S(=O)(=O)c3ccc(C)cc3)c3ccc(Br)cc23)cc(C(F)(F)F)c1C#N | – | – | – | – | 19.5 µM (inactive) | 47.4 µM (inactive) | – | 24.5 µM (inactive) | –
7 | CC1CN=C(Nc2cccc(C(F)(F)F)c2)S1 (stereo unspecified) | – | – | – | – | 54 µM (inactive) | – | 66.2 µM (inactive) | 80 µM (inactive) | –
8 | CC(=O)Nc1ccc(C(=O)NN2C(=O)C(Cl)C2/C=C/c2ccccc2)cc1 (stereo unspecified) | > 100 µM (inactive) | > 100 µM (inactive) | – | – | – | – | – | – | –
9 | O=[N+]([O-])c1cc2ncc(-c3ccccc3)c(O)c2cc1/C(Cl)=C/c1ccccc1 | – | 11.6 µM (inactive) | 4.88 µM (inactive) | – | – | – | – | – | –
10 | COc1ccc(OC)c(C(=O)/C=C/c2cc(O)c(O)cc2F)c1 | – | – | – | – | 5.85 µM (inactive) | 4.18 µM (inactive) | 0.424 µM (active) | 0.843 µM (active) | 2.28 µM (inactive)
11 | Nc1nc(=O)n(CC(O)CO)s1 (stereo unspecified) | > 100 µM (inactive) | > 100 µM (inactive) | > 100 µM (inactive) | > 100 µM (inactive) | – | – | – | – | –
12 | CC(C)(C)[Si](C)(C)OCCOCn1cc(F)c(=O)[nH]c1=O | – | – | – | – | 69 µM (inactive) | > 100 µM (inactive) | > 100 µM (inactive) | > 100 µM (inactive) | > 100 µM (inactive)
13 | CC(C)(C)[Si](OC1CC(n2cnc3c(N)ncnc32)OC1CO)(c1ccccc1)c1ccccc1 (stereo unspecified) | 34.6 µM (inactive) | 19.7 µM (inactive) | 23.7 µM (inactive) | – | – | – | – | – | –
14 | NC(=O)NN=C(CS)CS | – | 17.5 µM (inactive) | 30.5 µM (inactive) | – | – | – | – | – | –
15 | COc1ccc(N2C(=O)CSC2c2c[nH]c3ccccc23)cc1 (stereo unspecified) | – | – | – | – | > 100 µM (inactive) | 24.7 µM (inactive) | – | 85.1 µM (inactive) | –
16 | O=C(NCCCCCCNC(=O)n1cc(F)c(=O)[nH]c1=O)NCCCOCCOCCCNC(=O)C(O)C(O)C(O)C(O)CO (stereo unspecified) | – | > 2.5 µM (inactive) | > 2.5 µM (inactive) | – | – | – | – | – | –
17 | S=C(N/N=C(/c1ccccc1)c1ccccn1)Nc1cccc(Cl)c1 | – | – | – | – | 0.00369 µM (active) | – | 1.52 µM (inactive) | 1.05 µM (active) | –
18 | N#CC1=C(N)C(C#N)(C#N)C(c2ccc(F)cc2)C=C1C1CC1 (stereo unspecified) | – | – | – | – | 12.1 µM (inactive) | 10.2 µM (inactive) | 16.5 µM (inactive) | 3.2 µM (inactive) | 9.84 µM (inactive)
19 | Nc1ncnc2c1sc1nc3ccccc3n12 | – | – | – | – | > 100 µM (inactive) | > 100 µM (inactive) | 12.2 µM (inactive) | 80 µM (inactive) | –
20 | Cc1[nH]c(=O)nc(S)c1C(=O)NC1C2CCCCC2NC2CCCCC21 (stereo unspecified) | – | – | – | – | 7.59 µM (inactive) | 13.2 µM (inactive) | 23.4 µM (inactive) | 16.4 µM (inactive) | –

Row | Structure (SMILES) | GI50 (LXFL 529) | GI50 (M19-MEL) | GI50 (DMS-114) | GI50 (RXF 631) | GI50 (T47D) | GI50 (PC-3) | GI50 (Hs-578T) | GI50 (BT-549) | GI50 (786-0)
21 | O=C1CC(=O)N(c2ccccc2)N1/C(=C/c1ccccc1)c1ccccc1 | – | – | – | – | 21.3 µM (inactive) | 15.7 µM (inactive) | 17.3 µM (inactive) | 23.6 µM (inactive) | –
22 | CCOC(=O)[C@H]1Nc2c(cccc2[N+](=O)[O-])[C@H]2OCC[C@@H]12 | > 100 µM (inactive) | > 100 µM (inactive) | > 100 µM (inactive) | > 100 µM (inactive) | – | – | – | – | –
23 | CN1C(=O)[C@@H]2[C@@H]3c4ccccc4N[C@@H]3c3[nH]c4ccccc4c3[C@@H]2C1=O | – | – | – | – | – | 17.4 µM (inactive) | 28.3 µM (inactive) | 18.7 µM (inactive) | –
24 | Cn1c(=O)[nH]c2c(c1=O)C(=O)CN2 | > 100 µM (inactive) | > 100 µM (inactive) | > 100 µM (inactive) | – | – | – | – | – | –
25 | Nc1c(Br)cc2c(c1Br)Cc1cc(Br)ccc1-2 | – | – | – | – | > 100 µM (inactive) | > 100 µM (inactive) | > 100 µM (inactive) | – | –
26 | CCSc1nc(N)c2c(-c3ccccc3)c3c(nc2n1)CCC3 | – | – | – | – | > 100 µM (inactive) | > 100 µM (inactive) | > 100 µM (inactive) | > 100 µM (inactive) | –
27 | N=C(N)NS(=O)(=O)c1ccc(Nc2c3ccccc3nc3c(C(=O)N4CCN(CCO)CC4)ccc(Cl)c23)cc1 | – | > 100 µM (inactive) | > 100 µM (inactive) | – | – | – | – | – | –
28 | C[C@]12C[C@H](O)[C@H]3[C@@H](CCC4=CC(=O)CC[C@@]43C)[C@@H]1CC[C@@H]2c1csc(-c2ccccc2)n1 | – | – | – | – | 3.15 µM (inactive) | 3.32 µM (inactive) | 30.1 µM (inactive) | > 100 µM (inactive) | 25.2 µM (inactive)
29 | CN(C)c1ccc(C2ON=C(c3ccccc3)N2C23CC4CC(CC(C4)C2)C3)cc1 (stereo unspecified) | – | – | – | – | > 10 µM (inactive) | > 10 µM (inactive) | > 10 µM (inactive) | > 10 µM (inactive) | > 10 µM (inactive)
30 | C[Si](C)(C)CC(N)=O | > 100 µM (inactive) | > 100 µM (inactive) | > 100 µM (inactive) | > 100 µM (inactive) | – | – | – | – | > 100 µM (inactive)
31 | CC(=O)NC(Cc1ccsc1)C(=O)O (stereo unspecified) | – | > 100 µM (inactive) | > 100 µM (inactive) | – | – | – | – | – | –
32 | CC(C)(Br)C(Br)CCC(C)(Br)C(Br)CO (stereo unspecified) | – | – | – | – | > 10 µM (inactive) | > 10 µM (inactive) | > 10 µM (inactive) | > 10 µM (inactive) | > 10 µM (inactive)
33 | COc1ccccc1NC(=O)/C(Cc1nc2ccc([N+](=O)[O-])cc2nc1O)=N\NC(=O)C[N+](C)(C)C | – | – | – | – | – | > 100 µM (inactive) | > 100 µM (inactive) | > 100 µM (inactive) | 68.7 µM (inactive)
34 | O=C(N/N=C\C(F)(F)F)c1ccncc1 | – | – | – | – | – | 26.9 µM (inactive) | 38.6 µM (inactive) | > 100 µM (inactive) | –
35 | Cc1cccc(C)c1NC(=S)N/C=C(\C#N)C(N)=O | – | – | – | – | – | > 100 µM (inactive) | > 100 µM (inactive) | – | > 100 µM (inactive)
36 | O1C2C1C1OC1C1OC1C1OC21 (stereo unspecified) | – | – | – | – | > 100 µM (inactive) | > 100 µM (inactive) | > 100 µM (inactive) | > 100 µM (inactive) | –
37 | N/N=C1/C2CN3CCN(C2)CC1(c1ccc([N+](=O)[O-])cc1)C3 | – | – | – | – | – | > 100 µM (inactive) | 14.7 µM (inactive) | > 100 µM (inactive) | > 100 µM (inactive)
38 | COC(=O)CCC(NC(=O)OC(C)(C)C)C(=O)NC(Cc1ccc([N+](=O)[O-])cc1)C(=O)NC(CCC(=O)OC)C(=O)OC (stereo unspecified) (Boc-Glu(OMe)-[Phe(4-NO2)]-Glu(OMe)-OMe; configuration not given here) | – | – | – | – | > 100 µM (inactive) | > 100 µM (inactive) | > 100 µM (inactive) | – | > 100 µM (inactive)
39 | CCN(CC)c1ccc2cc(C(=O)Nc3ccc4[nH]c(C(=O)N5C[C@@H](CCl)c6c5cc(OC(=O)Nc5ccccc5)c5[nH]cc(C)c65)cc4c3)oc2c1 [CARZELESIN] | – | 0.000316 µM (active) | 0.000201 µM (active) | – | – | – | – | – | –
